The values below come from patent publication US12157717B2, “Compounds for the treatment of bovine or swine respiratory disease” (Intervet Inc., priority 2018, dated 2024).

What all share (assay type): cell-based
Assay [1] has as its system Mannheimia haemolytica MH 6357 (M7/2). The assay can be described thus: MIC, broth-microdilution (CLSI), strain MH 6357. Particulars: Mannheimia haemolytica M7/2, reference strain (cattle infection strain). As to the method: (§1) The Minimum inhibitory concentrations (MIC) of compounds according to the invention for a number of veterinary bacterial pathogens were determined by the broth-microdilution method according to CLSI document VETO 1-A4.
(§2) Microdilution trays containing a doubling dilution series of the test compound were used for the tests. The MIC results were interpreted according to the CLSI documents VET01-S3. The lowest concentration of compound at which no visible growth (i.e. no turbidity) detected by the unaided eye was recorded as the MIC.
In general terms: In broth dilution the organism is exposed to a series of concentrations in liquid medium.

The test system of assay [2] is Mannheimia haemolytica MH 6374 (ATCC 33396). The assay can be described thus: MIC, broth-microdilution (CLSI), strain MH 6374. The settings on record: Mannheimia haemolytica ATCC 33396, reference strain. As to the method:
as §1, §2

The test system of assay [3] is Mannheimia haemolytica MH 10720 (154). The assay can be described thus: MIC, broth-microdilution (CLSI), strain MH 10720. The settings on record: Mannheimia haemolytica 154, BRD field isolate. The method, then: as §1, §2
The subject of assay [4] is Mannheimia haemolytica MH 12587 (1071), macrolide-resistance: erm+, E+. As to the kind of experiment: MIC, broth-microdilution (CLSI), strain MH 12587. The settings on record: Mannheimia haemolytica 1071, BRD field isolate. The method, then:
as §1, §2

Assay [5] deals with Mannheimia haemolytica MH 13065 (XB0446-6003.9). The assay can be described thus: MIC, broth-microdilution (CLSI), strain MH 13065. Particulars: Mannheimia haemolytica XB0446-6003.9, BRD field isolate. The method, then: as §1, §2
The subject of assay [6] is Mannheimia haemolytica MH 13093 (XB0472-6014.1). The assay can be described thus: MIC, broth-microdilution (CLSI), strain MH 13093. The settings on record: Mannheimia haemolytica XB0472-6014.1, BRD field isolate. As to the method:
as §1, §2

Assay [7] has as its system Pasteurella multocida PM 6267 (P 2225 (L386)). The assay can be described thus: MIC, broth-microdilution (CLSI), strain PM 6267. Particulars: Pasteurella multocida P 2225 (L386), reference strain (mouse infection strain). The method, then: as §1, §2
The test system of assay [8] is Pasteurella multocida PM 6391 (ATCC 43137). The assay can be described thus: MIC, broth-microdilution (CLSI), strain PM 6391. The settings on record: Pasteurella multocida ATCC 43137, reference strain. The method, then:
as §1, §2

The test system of assay [9] is Pasteurella multocida PM 10775 (080130003051). As to the kind of experiment: MIC, broth-microdilution (CLSI), strain PM 10775. Particulars: Pasteurella multocida 080130003051, BRD field isolate. As to the method:
as §1, §2

Assay [10] deals with Pasteurella multocida PM 12080 (IV102277-0093). As to the kind of experiment: MIC, broth-microdilution (CLSI), strain PM 12080. The settings on record: Pasteurella multocida IV102277-0093, BRD field isolate. As to the method: as §1, §2

In brackets after ≈: the same amount, converted by molar mass.

Consider `CNC(=O)C(NC(=O)c1ccc(C#Cc2ccc(CNCC(F)(F)F)cc2)cc1)C(=O)NO` (centres unmarked) [Compound 19], for which the “MIC MH 6357” value in assay [1] was determined as 0.2 µM (≈ 0.0925 µg/mL). For the same compound, the “MIC MH 6374” value in assay [2] is 0.4 µM (≈ 0.185 µg/mL). In addition, the “MIC MH 10720” value in assay [3] is at most 0.1 µM. Further, in assay [4], the “MIC MH 12587” value amounted to 0.8 µM (≈ 0.37 µg/mL). Besides, in assay [5], the “MIC MH 13065” value was found to be 0.2 µM (≈ 0.0925 µg/mL). Moreover, in [6], the “MIC MH 13093” value stood at 0.2 µM (≈ 0.0925 µg/mL). In assay [7], the “MIC PM 6267” value is at most 0.1 µM. Also, the “MIC PM 6391” value in assay [8] is at most 0.1 µM. Further, the “MIC PM 10775” value in [9] was at most 0.1 µM. In assay [10], the “MIC PM 12080” value was at most 0.1 µM.

`CNC(=O)C(NC(=O)c1ccc(C#Cc2ccc(CNCc3ccc(OC)cc3)cc2)cc1)C(=O)NO` (centres unmarked) [Compound 6]: in [1], the “MIC MH 6357” value turned out to be 0.4 µM (≈ 0.2 µg/mL). Moreover, the “MIC MH 6374” value in [2] was found to be 0.8 µM (≈ 0.4 µg/mL). The “MIC MH 10720” value in [3] is at most 0.1 µM. For the same compound, the “MIC MH 12587” value in assay [4] worked out at 1.6 µM (≈ 0.801 µg/mL). Further, the “MIC MH 13065” value in assay [5] was 0.8 µM (≈ 0.4 µg/mL). Also, the “MIC MH 13093” value in [6] was found to be 1.6 µM (≈ 0.801 µg/mL). The “MIC PM 6267” value in assay [7] is at most 0.1 µM. Besides, the “MIC PM 6391” value in assay [8] worked out at 0.2 µM (≈ 0.1 µg/mL). The “MIC PM 10775” value in [9] is at most 0.1 µM. The “MIC PM 12080” value in [10] was at most 0.1 µM.

`CNC(=O)C(NC(=O)c1ccc(C#Cc2ccc(CNCc3ccco3)cc2)cc1)C(=O)NO` (centres unmarked) [Compound 14]: the “MIC MH 6357” value in assay [1] was 0.4 µM (≈ 0.184 µg/mL). Further, the “MIC MH 6374” value in assay [2] turned out to be 0.4 µM (≈ 0.184 µg/mL). In addition, the “MIC MH 10720” value in [3] stood at 0.2 µM (≈ 0.0921 µg/mL). Also, the “MIC MH 12587” value in [4] was 0.4 µM (≈ 0.184 µg/mL). The “MIC MH 13065” value in assay [5] came to 0.4 µM (≈ 0.184 µg/mL). In assay [6], the “MIC MH 13093” value was found to be 0.8 µM (≈ 0.368 µg/mL). Besides, the “MIC PM 6267” value in assay [7] was at most 0.1 µM. Further, the “MIC PM 6391” value in assay [8] is at most 0.1 µM. The “MIC PM 10775” value in assay [9] is at most 0.1 µM. For the same compound, in assay [10], the “MIC PM 12080” value is at most 0.1 µM.

Take `CNC(=O)C(NC(=O)c1ccc(C#Cc2ccc(CNC3CCC3)cc2)cc1)C(=O)NO` (centres unmarked) [Compound 8]: the “MIC MH 6357” value in [1] turned out to be 3.1 µM (≈ 1.35 µg/mL). In addition, the “MIC MH 6374” value in [2] was found to be 6.3 µM (≈ 2.74 µg/mL). Also, the “MIC MH 10720” value in [3] turned out to be 1.6 µM (≈ 0.695 µg/mL). Further, in [4], the “MIC MH 12587” value came to 12.5 µM (≈ 5.43 µg/mL). Also, the “MIC MH 13065” value in [5] stood at 6.3 µM (≈ 2.74 µg/mL). For the same compound, the “MIC MH 13093” value in assay [6] stood at 6.3 µM (≈ 2.74 µg/mL). Besides, the “MIC PM 6267” value in assay [7] is at most 0.1 µM. Further, the “MIC PM 6391” value in [8] came out at 0.4 µM (≈ 0.174 µg/mL). In assay [9], the “MIC PM 10775” value was at most 0.1 µM. In addition, in [10], the “MIC PM 12080” value is 0.4 µM (≈ 0.174 µg/mL).

For `CNC(=O)C(C(=O)NO)N(C)C(=O)c1ccc(C#Cc2ccc(CN3CCCC3)cc2)cc1` (centres unmarked) [Compound 25], the “MIC MH 6357” value in assay [1] was found to be 6.3 µM (≈ 2.83 µg/mL). In addition, the “MIC MH 6374” value in assay [2] came to 6.3 µM (≈ 2.83 µg/mL). Further, in assay [3], the “MIC MH 10720” value was 3.1 µM (≈ 1.39 µg/mL). Also, the “MIC MH 12587” value in assay [4] was 12.5 µM (≈ 5.61 µg/mL). In addition, the “MIC MH 13065” value in assay [5] stood at 6.3 µM (≈ 2.83 µg/mL). Also, in [6], the “MIC MH 13093” value turned out to be 12.5 µM (≈ 5.61 µg/mL). Moreover, the “MIC PM 6267” value in [7] was 1.6 µM (≈ 0.718 µg/mL). In assay [8], the “MIC PM 6391” value worked out at 3.1 µM (≈ 1.39 µg/mL). Moreover, the “MIC PM 10775” value in assay [9] is 0.4 µM (≈ 0.179 µg/mL). For the same compound, the “MIC PM 12080” value in assay [10] amounted to 1.6 µM (≈ 0.718 µg/mL).

On to `CNC(=O)C(C(=O)NO)N(C)C(=O)c1ccc(C#Cc2ccc(CNCc3ccc(OC)cc3)cc2)cc1` (centres unmarked) [Compound 24], for which the “MIC MH 6357” value in assay [1] was found to be 1.6 µM (≈ 0.823 µg/mL). Further, the “MIC MH 6374” value in [2] was determined as 1.6 µM (≈ 0.823 µg/mL). In assay [3], the “MIC MH 10720” value was found to be 0.8 µM (≈ 0.412 µg/mL). In addition, the “MIC MH 12587” value in [4] turned out to be 12.5 µM (≈ 6.43 µg/mL). Further, the “MIC MH 13065” value in assay [5] worked out at 3.1 µM (≈ 1.6 µg/mL). Moreover, in assay [6], the “MIC MH 13093” value is 6.3 µM (≈ 3.24 µg/mL). Besides, the “MIC PM 6267” value in [7] turned out to be 0.4 µM (≈ 0.206 µg/mL). Moreover, in assay [8], the “MIC PM 6391” value is 1.6 µM (≈ 0.823 µg/mL). In addition, the “MIC PM 10775” value in assay [9] was at most 0.1 µM. Further, the “MIC PM 12080” value in assay [10] was found to be 1.6 µM (≈ 0.823 µg/mL).

In the case of `CNC(=O)C(NC(=O)c1ccc(C#Cc2ccc(CNCc3ccccn3)cc2)cc1)C(=O)NO` (centres unmarked) [Compound 13], the “MIC MH 6357” value in assay [1] was 0.8 µM (≈ 0.377 µg/mL). Moreover, in assay [2], the “MIC MH 6374” value was 0.8 µM (≈ 0.377 µg/mL). Also, in [3], the “MIC MH 10720” value turned out to be 0.2 µM (≈ 0.0943 µg/mL). Further, the “MIC MH 12587” value in [4] amounted to 1.6 µM (≈ 0.754 µg/mL). Besides, the “MIC MH 13065” value in [5] was 1.6 µM (≈ 0.754 µg/mL). Further, the “MIC MH 13093” value in assay [6] is 0.8 µM (≈ 0.377 µg/mL). The “MIC PM 6267” value in assay [7] was at most 0.1 µM. Further, in [8], the “MIC PM 6391” value amounted to 0.2 µM (≈ 0.0943 µg/mL). In addition, the “MIC PM 10775” value in [9] is at most 0.1 µM. In assay [10], the “MIC PM 12080” value is at most 0.1 µM.

In the case of `CNC(=O)C(NC(=O)c1ccc(C#Cc2ccc(CNCc3ccc(C)cc3)cc2)cc1)C(=O)NO` (centres unmarked) [Compound 16], the “MIC MH 6357” value in [1] turned out to be 0.4 µM (≈ 0.194 µg/mL). Moreover, the “MIC MH 6374” value in [2] was found to be 0.8 µM (≈ 0.388 µg/mL). In assay [3], the “MIC MH 10720” value is 0.2 µM (≈ 0.0969 µg/mL). Moreover, in assay [4], the “MIC MH 12587” value came to 1.6 µM (≈ 0.775 µg/mL). The “MIC MH 13065” value in [5] was 0.8 µM (≈ 0.388 µg/mL). Besides, the “MIC MH 13093” value in assay [6] worked out at 1.6 µM (≈ 0.775 µg/mL). For the same compound, the “MIC PM 6267” value in [7] is at most 0.1 µM. The “MIC PM 6391” value in assay [8] was 0.4 µM (≈ 0.194 µg/mL). Also, the “MIC PM 10775” value in [9] was at most 0.1 µM. In addition, the “MIC PM 12080” value in [10] was determined as 0.2 µM (≈ 0.0969 µg/mL).
